Results: US20120029187A1, “HALOALKYLSULFONANILIDE DERIVATIVE” (Nissan Chemical Industries, Ltd., priority 2009, published 2012)

Assays:
Format in all cases: in vivo
barnyardgrass [1] = assay: Test Example 1: herbicidal effects in preemergence treatment under submerged conditions; conditions: dose 2.52 g/a
Procedure, shortened: (§1)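 Submerged conditions, 4 cm water over alluvial soil. Weeds sown and 2.5-leaf rice transplanted; compound applied preemergence to water surface, doses in g per are. Greenhouse, 25 to 30° C., three weeks, then 0–5 mortality rating.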

bulrush [2] = assay: as above; conditions: dose 2.52 g/a
Procedure, shortened: as §1

ducksalad [3] = assay: as above; conditions: dose 2.52 g/a
Procedure, shortened: as §1

transplanted rice = assay: Test Example 1: preemergence treatment under submerged conditions, effect on crop; conditions: dose 2.52 g/a
Procedure, shortened: as §1

barnyardgrass [4] = assay: Test Example 2: herbicidal effects during the vegetation period under submerged conditions; conditions: treatment during the vegetation period under submerged conditions; dose 2.52 g/a
Procedure, shortened: (§2)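 Barnyardgrass, bulrush and ducksalad were co-sown in alluvial soil flooded to 4 cm and grown in a greenhouse at 25 to 30° C. At the 1- or 2-leaf stage, water-diluted emulsifiable concentrates went onto the water surface at set doses (g/a). Herbicidal effect was scored three weeks later on a graded scale.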

bulrush [5] = assay: as above; conditions: treatment during the vegetation period under submerged conditions; dose 2.52 g/a
Procedure, shortened: as §2

ducksalad [6] = assay: as above; conditions: treatment during the vegetation period under submerged conditions; dose 2.52 g/a
Procedure, shortened: as §2

Italian ryegrass [7] = assay: Test Example 3: herbicidal effects in soil treatment; conditions: dose 3.2 g/a
Procedure, shortened: (§3)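 Seeds were sown in sterilized diluvial soil and covered with about 1.5 cm of soil. Compounds, formulated as emulsifiable concentrates and diluted with water, were sprayed evenly over the soil surface at set doses in g/a. Herbicidal effect was scored on a rating scale three weeks later.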

barnyardgrass [8] = assay: as above; conditions: dose 3.2 g/a
Procedure, shortened: as §3

beadstraw = assay: as above; conditions: dose 3.2 g/a
Procedure, shortened: as §3

common chickweed [9] = assay: as above; conditions: dose 3.2 g/a
Procedure, shortened: as §3

common lambsquater [10] = assay: as above; conditions: dose 3.2 g/a
Procedure, shortened: as §3

common ragweed [11] = assay: as above; conditions: dose 3.2 g/a
Procedure, shortened: as §3

giant foxtail [12] = assay: as above; conditions: dose 3.2 g/a
Procedure, shortened: as §3

large crabgrass [13] = assay: as above; conditions: dose 3.2 g/a
Procedure, shortened: as §3

redroot pigweed [14] = assay: as above; conditions: dose 3.2 g/a
Procedure, shortened: as §3

velvetleaf [15] = assay: as above; conditions: dose 3.2 g/a
Procedure, shortened: as §3

water foxtail [16] = assay: as above; conditions: dose 3.2 g/a
Procedure, shortened: as §3

Italian ryegrass [17] = assay: Test Example 4: herbicidal effect in foliage treatment; conditions: dose 3.2 g/a
Procedure, shortened: (§4)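 Visual herbicidal scores on a graded scale were recorded three weeks after foliar application. Compounds went on as diluted emulsifiable concentrates at predetermined g/a to plants grown 14 days in a 25 to 30° C greenhouse.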

barnyardgrass [18] = assay: as above; conditions: dose 3.2 g/a
Procedure, shortened: as §4

common chickweed [19] = assay: as above; conditions: dose 3.2 g/a
Procedure, shortened: as §4

common lambsquater [20] = assay: as above; conditions: dose 3.2 g/a
Procedure, shortened: as §4

common ragweed [21] = assay: as above; conditions: dose 3.2 g/a
Procedure, shortened: as §4

giant foxtail [22] = assay: as above; conditions: dose 3.2 g/a
Procedure, shortened: as §4

large crabgrass [23] = assay: as above; conditions: dose 3.2 g/a
Procedure, shortened: as §4

posumbu knotweed = assay: as above; conditions: dose 3.2 g/a
Procedure, shortened: as §4

redroot pigweed [24] = assay: as above; conditions: dose 3.2 g/a
Procedure, shortened: as §4

velvetleaf [25] = assay: as above; conditions: dose 3.2 g/a
Procedure, shortened: as §4

water foxtail [26] = assay: as above; conditions: dose 3.2 g/a
Procedure, shortened: as §4

[27] = three weeks after the application

| SMILES | A: barnyardgrass, herbicidal effect (evaluation scale 0-5) (barnyardgrass [1]) | B: bulrush, herbicidal effect (evaluation scale 0-5) (bulrush [2]) | C: ducksalad, herbicidal effect (evaluation scale 0-5) (ducksalad [3]) | a: transplanted rice, effect on crop (evaluation scale 0-5) (transplanted rice) | A: barnyardgrass, herbicidal effect (evaluation scale 0-5) (barnyardgrass [4]) | B: bulrush, herbicidal effect (evaluation scale 0-5) (bulrush [5]) | C: ducksalad, herbicidal effect (evaluation scale 0-5) (ducksalad [6]) | H: Italian ryegrass, herbicidal effect (evaluation scale 0-5) (Italian ryegrass [7]) | A: barnyardgrass, herbicidal effect (evaluation scale 0-5) (barnyardgrass [8]) | O: beadstraw, herbicidal effect (evaluation scale 0-5) (beadstraw) | N: common chickweed, herbicidal effect (evaluation scale 0-5) (common chickweed [9]) | L: common lambsquater, herbicidal effect (evaluation scale 0-5) (common lambsquater [10]) | J: common ragweed, herbicidal effect (evaluation scale 0-5) (common ragweed [11]) | E: giant foxtail, herbicidal effect (evaluation scale 0-5) (giant foxtail [12]) | D: large crabgrass, herbicidal effect (evaluation scale 0-5) (large crabgrass [13]) | K: redroot pigweed, herbicidal effect (evaluation scale 0-5) (redroot pigweed [14]) | I: velvetleaf, herbicidal effect (evaluation scale 0-5) (velvetleaf [15]) | G: water foxtail, herbicidal effect (evaluation scale 0-5) (water foxtail [16]) | also measured |
| --- | --- | --- | --- | --- | --- | --- | --- | --- | --- | --- | --- | --- | --- | --- | --- | --- | --- | --- | --- |
| CC1(c2ccccc2)CC(=O)N(Cc2ccccc2NS(=O)(=O)C(F)(F)F)CO1 (stereo not shown) [II-57] | 5 (mortality of 90% or above (nearly complete death)) | 5 (mortality of 90% or above (nearly complete death)) | 5 (mortality of 90% or above (nearly complete death)) | 0 (mortality of less than 5% (almost ineffective)) | 2 (mortality of at least 20% and less than 40%) | 5 (mortality of 90% or above (nearly complete death)) | 5 (mortality of 90% or above (nearly complete death)) | 5 (mortality of 90% or above (nearly complete death)) | 2 (mortality of at least 20% and less than 40%) | 0 (mortality of less than 5% (almost ineffective)) | 4 (mortality of at least 70% and less than 90%) | 0 (mortality of less than 5% (almost ineffective)) | 0 (mortality of less than 5% (almost ineffective)) | 5 (mortality of 90% or above (nearly complete death)) | 3 (mortality of at least 40% and less than 70%) | 0 (mortality of less than 5% (almost ineffective)) | 5 (mortality of 90% or above (nearly complete death)) | 5 (mortality of 90% or above (nearly complete death)) | H: Italian ryegrass, herbicidal effect (Italian ryegrass [17]; three weeks after application): 5 (mortality of 90% or above (nearly complete death)); A: barnyardgrass, herbicidal effect (barnyardgrass [18]; three weeks after application): 4 (mortality of at least 70% and less than 90%); N: common chickweed, herbicidal effect (common chickweed [19]; three weeks after application): 4 (mortality of at least 70% and less than 90%); L: common lambsquater, herbicidal effect (common lambsquater [20]; three weeks after application): 3 (mortality of at least 40% and less than 70%); J: common ragweed, herbicidal effect (common ragweed [21]; three weeks after application): 3 (mortality of at least 40% and less than 70%); E: giant foxtail, herbicidal effect (giant foxtail [22]; three weeks after application): 2 (mortality of at least 20% and less than 40%); D: large crabgrass, herbicidal effect (large crabgrass [23]; three weeks after application): 2 (mortality of at least 20% and less than 40%); M: posumbu knotweed, herbicidal effect (posumbu knotweed; three weeks after application): 3 (mortality of at least 40% and less than 70%); K: redroot pigweed, herbicidal effect (redroot pigweed [24]; three weeks after application): 0 (mortality of less than 5% (almost ineffective)); I: velvetleaf, herbicidal effect (velvetleaf [25]; three weeks after application): 3 (mortality of at least 40% and less than 70%); G: water foxtail, herbicidal effect (water foxtail [26]; three weeks after application): 3 (mortality of at least 40% and less than 70%) |
| CCC(=O)N(c1ccccc1CN1C(=O)CC(C)(C)OC1C)S(=O)(=O)C(F)(F)F (stereo not shown) [II-73] | 5 (mortality of 90% or above (nearly complete death)) | 5 (mortality of 90% or above (nearly complete death)) | 5 (mortality of 90% or above (nearly complete death)) | 3 (mortality of at least 40% and less than 70%) | 5 (mortality of 90% or above (nearly complete death)) | 5 (mortality of 90% or above (nearly complete death)) | 5 (mortality of 90% or above (nearly complete death)) | 5 (mortality of 90% or above (nearly complete death)) | 5 (mortality of 90% or above (nearly complete death)) | 4 (mortality of at least 70% and less than 90%) | 0 (mortality of less than 5% (almost ineffective)) | 0 (mortality of less than 5% (almost ineffective)) | 3 (mortality of at least 40% and less than 70%) | 5 (mortality of 90% or above (nearly complete death)) | 5 (mortality of 90% or above (nearly complete death)) | 0 (mortality of less than 5% (almost ineffective)) | 5 (mortality of 90% or above (nearly complete death)) | 5 (mortality of 90% or above (nearly complete death)) | H: Italian ryegrass, herbicidal effect (Italian ryegrass [17]; [27]): 5 (mortality of 90% or above (nearly complete death)); A: barnyardgrass, herbicidal effect (barnyardgrass [18]; [27]): 5 (mortality of 90% or above (nearly complete death)); N: common chickweed, herbicidal effect (common chickweed [19]; [27]): 2 (mortality of at least 20% and less than 40%); L: common lambsquater, herbicidal effect (common lambsquater [20]; [27]): 0 (mortality of less than 5% (almost ineffective)); J: common ragweed, herbicidal effect (common ragweed [21]; [27]): 2 (mortality of at least 20% and less than 40%); E: giant foxtail, herbicidal effect (giant foxtail [22]; [27]): 4 (mortality of at least 70% and less than 90%); D: large crabgrass, herbicidal effect (large crabgrass [23]; [27]): 4 (mortality of at least 70% and less than 90%); M: posumbu knotweed, herbicidal effect (posumbu knotweed; [27]): 4 (mortality of at least 70% and less than 90%); K: redroot pigweed, herbicidal effect (redroot pigweed [24]; [27]): 0 (mortality of less than 5% (almost ineffective)); I: velvetleaf, herbicidal effect (velvetleaf [25]; [27]): 5 (mortality of 90% or above (nearly complete death)); G: water foxtail, herbicidal effect (water foxtail [26]; [27]): 5 (mortality of 90% or above (nearly complete death)) |
